# What was measured:
# [1] = Proposed equivalent dose in chronotherapeutic administration; conditions: proposed clinical dose
# [2] = BNF 37 March 1999; non-chronotherapeutic; cited from earlier work
# [3] = system: patients with rheumatoid arthritis; experiment: Assessor-blind study of prednisolone 1 mg and 5 mg given at 02.00: clinical outcomes; type: in vivo; conditions: for More or Less (arthritis worse: -1 morning, 0 equal, +1 afternoon) / Pain (VAS) / Painful Joints (tender joint count, n=28) / Swollen Joints (swollen joint count, n=28) / Cln Opn (clinician opinion of condition, VAS) / EMS (morning stiffness) / Pt Opn (patient opinion of condition, VAS): mean; for Pain (VAS) / Painful Joints (tender joint count, n=28) / Swollen Joints (swollen joint count, n=28): 08.30; for Cln Opn (clinician opinion of condition, VAS) / EMS (morning stiffness) / Pt Opn (patient opinion of condition, VAS): 12.00
# From the text: Patients stayed the night in hospital but were free to be up and about and to leave the hospital during the day. […] Blood samples and clinical assessments were made at 08.30 and further clinical assessments related to symptoms on the day of drug administration at 12.00 and 08.30 the following day (except the final day when this last assessment was made before departure from the hospital). […] Patients went home on Friday afternoon but returned the following Monday to repeat the procedure. […] The patient and assessor were not aware of which dose was given.
# Clinical: Outcome was measured at 08.30 each day for: swollen joint count (n=28); tender joint count (n=28); pain (0.100 mm, VAS). Outcome was measured at 12.00 each day for: morning stiffness (minutes); patient opinion of condition (0-100 mm, VAS); clinician opinion of condition (0-100 mm, VAS). Outcome was measured the following day for: whether the arthritis was worse in the morning or afternoon on the previous day (−1 morning, 0 equal, +1 afternoon).
# The assessor was not aware of the treatment order allocation (and probably remained blind), but no placebo tablets were used and it was possible for a patient to be un-blind.
# Informed consent was obtained and the patient prescription written by a doctor not associated with trial evaluation. Medication was dispensed at 2 a.m. on each treatment day after gently waking the patient. The patient was encouraged to settle back to sleep immediately.
# On the morning before medication and on each morning on the day of medication, blood samples were taken at 8.30 a.m. and outcome assessments recorded then, and at noon, as indicated above.
# Symptoms, signs and laboratory results were compared within and between patients, but the main assessment was visual inspection of the overall pattern of response. Means and standard deviations were used to define variation rates and for calculating trial size for future studies. An overall assessment of practicality and the potential for more frequent (but smaller volume) blood taking was made by discussion amongst the staff and patients involved.
# This patient's assessments have been included normally in the first week, but in the second week they have been used differently.
# C-reactive protein (CRP) = experiment: Same study: serum C-reactive protein at 08.30; type: in vivo, patients
# Method: (§1) Serological: Serum samples were obtained at 08.30, kept on ice for up to 1 hour, separated and stored at −70° C. to measure: C-reactive protein (CRP); IL-6 concentration; IL-6 soluble receptor (IL-6sR) concentration; hyaluronate (HA) concentration.
# hyaluronate (HA) = experiment: Same study: serum hyaluronate concentration at 08.30; type: in vivo, patients; parameters: unit not given beside the values; conditions: mean, serum 08.30
# IL-6 = experiment: Same study: serum IL-6 concentration at 08.30; type: in vivo, patients
# Method: as §1
# rheumatoid arthritis = conditions: daily dosage of 7.5 mg; Kirwan 1995; cited from earlier work
# [4] = human, in vivo, 1.25 mg
# [5] = BNF 37 March 1999; cited from earlier work
# [6] = 1 mg prednisolone, three patients
# [7] = Dose 1 mg at 02.00, Day 1, mean, serum 08.30
# [8] = Dose 1 mg at 02.00, Day 2, mean, serum 08.30
# [9] = Dose 1 mg at 02.00, Day 3, mean, serum 08.30
# [10] = Dose 5 mg at 02.00, Day 11, mean, serum 08.30
# [11] = Dose 5 mg at 02.00, Day 12, mean, serum 08.30
# [12] = Dose 5 mg at 02.00, Day 13, mean, serum 08.30
compound,measurement,setting,value
CC(=O)OCC(=O)[C@@]1(O)CC[C@H]2[C@@H]3CCC4=CC(=O)CC[C@]4(C)[C@H]3C(=O)C[C@@]21C [cortisone acetate],"Equivalent dose in chronotherapeutic administration, equal to 1 mg prednisolone",[1],5 mg
same,Dose equal to 5 mg prednisolone (Normal dosing),[2],25 mg
CC(=O)OCC(=O)[C@@]12N=C(C)O[C@@H]1C[C@H]1[C@@H]3CCC4=CC(=O)C=C[C@]4(C)[C@H]3[C@@H](O)C[C@@]12C [deflazacort],"Equivalent dose in chronotherapeutic administration, equal to 1 mg prednisolone",[1],1.2 mg
same,Dose equal to 5 mg prednisolone (Normal dosing),[2],6 mg
C[C@]12CCC(=O)C=C1CC[C@@H]1[C@@H]2[C@@H](O)C[C@@]2(C)[C@H]1CC[C@]2(O)C(=O)CO [hydrocortisone],"Equivalent dose in chronotherapeutic administration, equal to 1 mg prednisolone",[1],4 mg
same,Dose equal to 5 mg prednisolone (Normal dosing),[2],20 mg
C[C@]12C=CC(=O)C=C1CC[C@@H]1[C@@H]2[C@@H](O)C[C@@]2(C)[C@H]1CC[C@]2(O)C(=O)CO [prednisolone],EMS,[3]; [6],statistically significantly reduced
same,Pain,[3]; [6],statistically significantly reduced
same,clinician's opinion,[3]; [6],statistically significantly reduced
same,patient's opinion,[3]; [6],statistically significantly reduced
same,Overall results compared with Arvidson et al.,[3]; 5 mg prednisolone at 02.00,well within the range of findings published by Arvidson et al.
same,"More or Less (arthritis worse: -1 morning, 0 equal, +1 afternoon)","[3]; Dose 1 mg at 02.00, Day 1",−0.7
same,Pain (VAS),"[3]; Dose 1 mg at 02.00, Day 1",26.0 mm
same,"Painful Joints (tender joint count, n=28)","[3]; Dose 1 mg at 02.00, Day 1",20.0
same,"Swollen Joints (swollen joint count, n=28)","[3]; Dose 1 mg at 02.00, Day 1",18.7
same,"Cln Opn (clinician opinion of condition, VAS)","[3]; Dose 1 mg at 02.00, Day 1",28.7 mm
same,EMS (morning stiffness),"[3]; Dose 1 mg at 02.00, Day 1",55.0 min
same,"Pt Opn (patient opinion of condition, VAS)","[3]; Dose 1 mg at 02.00, Day 1",23.7 mm
same,"More or Less (arthritis worse: -1 morning, 0 equal, +1 afternoon)","[3]; Dose 1 mg at 02.00, Day 2",−0.7
same,Pain (VAS),"[3]; Dose 1 mg at 02.00, Day 2",20.3 mm
same,"Painful Joints (tender joint count, n=28)","[3]; Dose 1 mg at 02.00, Day 2",20.3
same,"Swollen Joints (swollen joint count, n=28)","[3]; Dose 1 mg at 02.00, Day 2",18.7
same,"Cln Opn (clinician opinion of condition, VAS)","[3]; Dose 1 mg at 02.00, Day 2",29.3 mm
same,EMS (morning stiffness),"[3]; Dose 1 mg at 02.00, Day 2",51.7 min
same,"Pt Opn (patient opinion of condition, VAS)","[3]; Dose 1 mg at 02.00, Day 2",26.7 mm
same,"More or Less (arthritis worse: -1 morning, 0 equal, +1 afternoon)","[3]; Dose 1 mg at 02.00, Day 3",0.0
same,Pain (VAS),"[3]; Dose 1 mg at 02.00, Day 3",16.7 mm
same,"Painful Joints (tender joint count, n=28)","[3]; Dose 1 mg at 02.00, Day 3",20.3
same,"Swollen Joints (swollen joint count, n=28)","[3]; Dose 1 mg at 02.00, Day 3",18.3
same,"Cln Opn (clinician opinion of condition, VAS)","[3]; Dose 1 mg at 02.00, Day 3",16.3 mm
same,EMS (morning stiffness),"[3]; Dose 1 mg at 02.00, Day 3",40.0 min
same,"Pt Opn (patient opinion of condition, VAS)","[3]; Dose 1 mg at 02.00, Day 3",12.7 mm
same,"More or Less (arthritis worse: -1 morning, 0 equal, +1 afternoon)","[3]; Dose 5 mg at 02.00, Day 11",−0.3
same,Pain (VAS),"[3]; Dose 5 mg at 02.00, Day 11",19.7 mm
same,"Painful Joints (tender joint count, n=28)","[3]; Dose 5 mg at 02.00, Day 11",19.0
same,"Swollen Joints (swollen joint count, n=28)","[3]; Dose 5 mg at 02.00, Day 11",18.0
same,"Cln Opn (clinician opinion of condition, VAS)","[3]; Dose 5 mg at 02.00, Day 11",27.7 mm
same,EMS (morning stiffness),"[3]; Dose 5 mg at 02.00, Day 11",30.0 min
same,"Pt Opn (patient opinion of condition, VAS)","[3]; Dose 5 mg at 02.00, Day 11",19.3 mm
same,"More or Less (arthritis worse: -1 morning, 0 equal, +1 afternoon)","[3]; Dose 5 mg at 02.00, Day 12",−0.3
same,Pain (VAS),"[3]; Dose 5 mg at 02.00, Day 12",15.7 mm
same,"Painful Joints (tender joint count, n=28)","[3]; Dose 5 mg at 02.00, Day 12",19.7
same,"Swollen Joints (swollen joint count, n=28)","[3]; Dose 5 mg at 02.00, Day 12",17.3
same,"Cln Opn (clinician opinion of condition, VAS)","[3]; Dose 5 mg at 02.00, Day 12",15.7 mm
same,EMS (morning stiffness),"[3]; Dose 5 mg at 02.00, Day 12",20.0 min
same,"Pt Opn (patient opinion of condition, VAS)","[3]; Dose 5 mg at 02.00, Day 12",11.7 mm
same,"More or Less (arthritis worse: -1 morning, 0 equal, +1 afternoon)","[3]; Dose 5 mg at 02.00, Day 13",−0.7
same,Pain (VAS),"[3]; Dose 5 mg at 02.00, Day 13",16.0 mm
same,"Painful Joints (tender joint count, n=28)","[3]; Dose 5 mg at 02.00, Day 13",19.7
same,"Swollen Joints (swollen joint count, n=28)","[3]; Dose 5 mg at 02.00, Day 13",14.0
same,"Cln Opn (clinician opinion of condition, VAS)","[3]; Dose 5 mg at 02.00, Day 13",11.7 mm
same,EMS (morning stiffness),"[3]; Dose 5 mg at 02.00, Day 13",33.3 min
same,"Pt Opn (patient opinion of condition, VAS)","[3]; Dose 5 mg at 02.00, Day 13",13.3 mm
same,CRP,C-reactive protein (CRP); 1 mg prednisolone,tendency for reduction
same,CRP,C-reactive protein (CRP); 5 mg prednisolone,reduced significantly
same,CRP,C-reactive protein (CRP); [7],35.5
same,CRP,C-reactive protein (CRP); [8],31.2
same,CRP,C-reactive protein (CRP); [9],25.8
same,CRP,C-reactive protein (CRP); [10],36.6
same,CRP,C-reactive protein (CRP); [11],31.1
same,CRP,C-reactive protein (CRP); [12],19.1
same,HA,"hyaluronate (HA); Dose 1 mg at 02.00, Day 1",241.9
same,HA,"hyaluronate (HA); Dose 1 mg at 02.00, Day 2",320.3
same,HA,"hyaluronate (HA); Dose 1 mg at 02.00, Day 3",372.5
same,HA,"hyaluronate (HA); Dose 5 mg at 02.00, Day 11",322.5
same,HA,"hyaluronate (HA); Dose 5 mg at 02.00, Day 12",339.5
same,HA,"hyaluronate (HA); Dose 5 mg at 02.00, Day 13",193.9
same,IL-6,IL-6; 1 mg prednisolone,tendency for reduction
same,IL-6,IL-6; 5 mg prednisolone,reduced significantly
same,IL-6,IL-6; [7],28.1
same,IL-6,IL-6; [8],31.1
same,IL-6,IL-6; [9],22.8
same,IL-6,IL-6; [10],30.3
same,IL-6,IL-6; [11],18.5
same,IL-6,IL-6; [12],13.8
same,Efficacy in rheumatoid arthritis,rheumatoid arthritis,effective
same,time to Cmax or Tmax,[4],1 to 3 h
C[C@]12C=CC(=O)C=C1CC[C@H]1[C@@H]3C[C@@H](O)[C@](O)(C(=O)CO)[C@@]3(C)C[C@H](O)[C@@]12F [triamcinolone],"Equivalent dose in chronotherapeutic administration, equal to 1 mg prednisolone",[1],0.8 mg
same,Broadly similar dose in nasal administration,[5],110 µg
same,Dose equal to 5 mg prednisolone (Normal dosing),[2],4 mg
methyl prednisone,"Equivalent dose in chronotherapeutic administration, equal to 1 mg prednisolone",[1],0.8 mg
same,Dose equal to 5 mg prednisolone (Normal dosing),[2],4 mg
